How the values were obtained:
MEK1 = MEK1 (Homo sapiens (Human), UniProt Q02750); assay: MEK1 inhibition assay (Z'-LYTE biochemical assay); details: MAP2K1 (MEK1)/inactive MAPK1 (ERK2)/Ser/Thr 03 cascade, 10 point titration; read-out: IC50 against MEK1
Experimental: MEK1 inhibitory activity of compounds were tested using the following procedure (protocol available at thermofisher.com/content/dam/LifeTech/migration/files/drug-discovery/pdfs.par.60256.file.dat/20130430%20ssbk%20customer%20protocol%20and%20assay%20conditions.pdf). The Z′-LYTE biochemical assay (ThermoFisher) employs a fluorescence-based, coupled-enzyme format and is based on the differential sensitivity of phosphorylated and non-phosphorylated peptides to proteolytic cleavage.
Test compounds in 100% DMSO were screened in 1% DMSO (final) in the well. For 10 point titrations, 3-fold serial dilutions are conducted from the starting concentration of 30 μM.
After the 1 hour incubation, 5 μL of a 1:1024 dilution of Development Reagent A (available from Invitrogen, catalog no. PV3295) was added.
ATP solutions were diluted to a 4× working concentration in Kinase Buffer (50 mM HEPES pH 7.5, 0.01% BRIJ-35, 10 mM MgCl2, 1 mM EGTA). ATP Km apparent was previously determined using a Z′-LYTE assay. The Development Reagent was diluted in Development Buffer (available from Invitrogen, catalog no. P3127).
Assay Protocol: 2.5 μL of 4× test compound or 100 nL of 100× Test Compound plus 2.4 μL Kinase Buffer, 5 μL of the 2× Peptide/Kinase Mixture, 2.5 μL of 4×ATP Solution were added to the plates and placed on a shake plate for 30-seconds. The kinase reaction was allowed to proceed for 60-minute at room temperature, before 5 μL of Development Reagent Solution was added, and the mixture agitated for 30-seconds on a shake plate. The mixture was incubated for 60-minute at room temperature. Fluorescence was measured using a plate reader and the data were analyzed.
This control yielded 100% cleaved peptide in the Development Reaction. The 100% Phosphorylation Control, which consisted of a synthetically phosphorylated peptide of the same sequence as the peptide substrate, was designed to allow for the calculation of percent phosphorylation. This control yielded a very low percentage of cleaved peptide in the Development Reaction. The 0% Phosphorylation and 100% Phosphorylation Controls allow for the calculation of the percent phosphorylation achieved in a specific reaction well.
The minimum emission ratio in a screen was established by the 0% Inhibition Control, which contained active kinase. This control was designed to produce a 10-50% phosphorylated peptide in the Kinase Reaction. […]
A known inhibitor control standard curve, 10 point titration, was run for each individual kinase on the same plate as the kinase to ensure the kinase was inhibited within an expected IC50 range previously determined.
The following controls are prepared for each concentration of Test Compound assayed. […] The expected value for a non-fluorescence compound should be 0%. […]
The data in Table A was calculated. […]

[1] = Human liver S9 fraction stability assay; type: in vitro ADME; details: pH 7.4, human liver S9, 1 μM test compound, 2 mg/mL protein, 1 mM NADPH, 37° C., read-out: Liver S9 fraction stability, t1/2
Experimental: Compounds can be assessed for metabolic stability in human skin by assessing their rate of disappearance from human S9 skin fraction. Similarly, compounds can be assessed for metabolic stability in human liver by assessing their rate of disappearance from human S9 liver fraction. The protocol below is used to assess the difference between skin and hepatic metabolism.
The assay was carried out in 96-well microtiter plates at 37° C. Reaction mixtures (25 μL) contained a final concentration of 1 μM test compound, 2 mg/mL liver or skin protein, and 1 mM NADPH in buffer (100 mM potassium phosphate, pH 7.4 buffer with 1 mM EDTA, 3 mM MgCl2). At each of the time points (0, 15, 30, and 60 minutes), 150 μL of quench solution (100% acetonitrile with 0.1% formic acid) with internal standard was transferred to each well. Besides the zero minute controls, mixtures containing the same components except the NADPH were also prepared as the negative control. Verapamil or testosterone was included as a positive control to verify assay performance. Plates were sealed and centrifuged at 4° C. for 15 minutes at 4000 rpm. The supernatant was transferred to fresh plates for LC/MS/MS analysis.
All samples were analyzed on LC/MS/MS using an AB Sciex API 4000 instrument, coupled to a Shimadzu LC-20AD LC Pump system. Analytical samples were separated using a Waters Atlantis T3 dC18 reverse phase HPLC column (20 mm×2.1 mm) at a flow rate of 0.5 mL/min. The mobile phase consisted of 0.1% formic acid in water (solvent A) and 0.1% formic acid in 100% acetonitrile (solvent B).
The extent of metabolism was calculated as the disappearance of the test compound, compared to the 0-min control reaction incubations. Initial rates were calculated for the compound concentration and used to determine t1/2 values and subsequently, the intrinsic clearance, CLint=(0.693) (1/t1/2 (min)) (mL incubation/mg of S9 protein).
Table 4 lists t1/2 values for the above liver S9 stability assay. […]

Chain of MEK1 (Q02750 whole entry): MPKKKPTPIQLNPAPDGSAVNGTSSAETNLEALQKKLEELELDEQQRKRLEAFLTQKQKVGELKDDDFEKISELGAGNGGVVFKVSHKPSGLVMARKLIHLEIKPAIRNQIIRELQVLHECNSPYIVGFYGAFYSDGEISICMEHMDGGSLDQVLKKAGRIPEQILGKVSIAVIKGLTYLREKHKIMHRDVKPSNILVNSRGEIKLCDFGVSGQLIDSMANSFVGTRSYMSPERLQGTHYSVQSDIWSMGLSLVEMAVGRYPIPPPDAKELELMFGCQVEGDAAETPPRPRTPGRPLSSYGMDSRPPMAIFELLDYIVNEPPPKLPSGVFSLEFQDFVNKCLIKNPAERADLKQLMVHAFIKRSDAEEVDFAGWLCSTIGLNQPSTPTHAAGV

SMILES	IC50 (MEK1) [nM]	half-life at 1 μM [1] [min]
COC(=O)Cn1ccc2cncc(Nc3ccc(I)cc3F)c2c1=O [Compound 1.005, Methyl 2-(8-(2-fluoro-4-iodophenylamino)-1-oxo-2,6-naphthyridin-2(1H)-yl)acetate]	> 1500	–
O=C1c2c(cncc2Nc2ccc(I)cc2F)CCN1OCCO [Compound 1.010, 8-(2-Fluoro-4-iodophenylamino)-2-(2-hydroxyethoxy)-3,4-dihydro-2,6-naphthyridin-1(2H)-one]	–	50 to 200
O=C1NCCc2cncc(Nc3ccc(I)cc3F)c21 [Compound 1.012, 8-((2-Fluoro-4-iodophenyl)amino)-3,4-dihydro-2,6-naphthyridin-1(2H)-one]	–	≤ 50

The next lines start with the values.

IC50 (MEK1) [nM]	half-life at 1 μM [1] [min]	SMILES
≤ 150	–	O=c1c2c(Nc3ccc(I)cc3F)cncc2ccn1C[C@@H](O)CO [Compound 1.001, (R)-2-(2,3-Dihydroxypropyl)-8-(2-fluoro-4-iodophenylamino)-2,6-naphthyridin-1(2H)-one]
≤ 150	–	O=c1c2c(Nc3ccc(I)cc3F)cncc2ccn1C[C@H](O)CO [Compound 1.002, (S)-2-(2,3-Dihydroxypropyl)-8-(2-fluoro-4-iodophenylamino)-2,6-naphthyridin-1(2H)-one]
> 1500	–	O=C(O)Cn1ccc2cncc(Nc3ccc(I)cc3F)c2c1=O [Compound 1.004, 2-(8-(2-Fluoro-4-iodophenylamino)-1-oxo-2,6-naphthyridin-2(1H)-yl)acetic acid]
–	50 to 200	O=c1c2c(Nc3ccc(I)cc3F)cncc2ccn1OCCO [Compound 1.007, 8-(2-Fluoro-4-iodophenylamino)-2-(2-hydroxyethoxy)-2,6-naphthyridin-1(2H)-one]

Reference: patent US12378240B2, “Naphthyridinone-aniline compounds for treatment of dermal disorders” (NFlection Therapeutics, Inc., priority 2018, dated 2025)
